Test results reported in a compilation of properties of binary mixtures (doi:10.1021/je950317s).

Assay: excess molar enthalpy (molar enthalpy of mixing); xn = mol fraction of the nth substance listed
Conditions: 100 kPa

Cl/C=C/Cl + CC(C)CC(C)(C)C
293.15 K
Conditions | excess molar enthalpy [kJ/mol]
x1 = 0.1328 | 0.217
x1 = 0.1885 | 0.285
x1 = 0.2561 | 0.386
x1 = 0.3253 | 0.466
x1 = 0.415 | 0.519
x1 = 0.4532 | 0.545
x1 = 0.4584 | 0.561
x1 = 0.5167 | 0.591
x1 = 0.5332 | 0.577
x1 = 0.5571 | 0.577
x1 = 0.5777 | 0.583
x1 = 0.6055 | 0.582
x1 = 0.6468 | 0.563
x1 = 0.6554 | 0.556
x1 = 0.6658 | 0.547
x1 = 0.6824 | 0.545
x1 = 0.6926 | 0.53
x1 = 0.8092 | 0.417
x1 = 0.8404 | 0.366
x1 = 0.8988 | 0.259
x1 = 0.9517 | 0.138

Cl/C=C\Cl + CC(C)CC(C)(C)C
293.15 K
Conditions | excess molar enthalpy [kJ/mol]
x1 = 0.2119 | 0.596
x1 = 0.3627 | 0.873
x1 = 0.4911 | 0.952
x1 = 0.5812 | 0.946
x1 = 0.6622 | 0.878
x1 = 0.7314 | 0.785
x1 = 0.8061 | 0.649
x1 = 0.8696 | 0.484
x1 = 0.9434 | 0.237

Cl/C=C/Cl + CCCCCCC
293.15 K
Conditions | excess molar enthalpy [kJ/mol]
x1 = 0.1911 | 0.339
x1 = 0.2074 | 0.356
x1 = 0.2453 | 0.426
x1 = 0.2905 | 0.465
x1 = 0.3272 | 0.534
x1 = 0.352 | 0.54
x1 = 0.3757 | 0.573
x1 = 0.4118 | 0.63
x1 = 0.4157 | 0.629
x1 = 0.452 | 0.661
x1 = 0.4756 | 0.662
x1 = 0.4978 | 0.675
x1 = 0.5334 | 0.678
x1 = 0.5472 | 0.684
x1 = 0.5627 | 0.689
x1 = 0.5821 | 0.677
x1 = 0.6074 | 0.688
x1 = 0.6429 | 0.655
x1 = 0.6534 | 0.651
x1 = 0.7038 | 0.607
x1 = 0.7761 | 0.522
x1 = 0.8005 | 0.491
x1 = 0.907 | 0.274
x1 = 0.9624 | 0.126

Cl/C=C\Cl + CCCCCCC
313.15 K
Conditions | excess molar enthalpy [kJ/mol]
x1 = 0.0572 | 0.203
x1 = 0.2014 | 0.62
x1 = 0.3465 | 0.912
x1 = 0.4595 | 1.02
x1 = 0.5694 | 1.01
x1 = 0.6673 | 0.925
x1 = 0.7579 | 0.767
x1 = 0.8409 | 0.572
x1 = 0.9317 | 0.273

Cl/C=C/Cl + CCCCCCCCCC
293.15 K
Conditions | excess molar enthalpy [kJ/mol]
x1 = 0.0575 | 0.092
x1 = 0.1583 | 0.266
x1 = 0.2175 | 0.362
x1 = 0.2316 | 0.395
x1 = 0.2585 | 0.444
x1 = 0.3396 | 0.554
x1 = 0.3972 | 0.638
x1 = 0.4202 | 0.671
x1 = 0.4829 | 0.705
x1 = 0.5312 | 0.751
x1 = 0.5522 | 0.746
x1 = 0.5739 | 0.732
x1 = 0.6031 | 0.731
x1 = 0.6375 | 0.745
x1 = 0.6555 | 0.735
x1 = 0.6923 | 0.691
x1 = 0.6977 | 0.696
x1 = 0.7284 | 0.682
x1 = 0.7393 | 0.673
x1 = 0.7653 | 0.62
x1 = 0.7812 | 0.604
x1 = 0.8229 | 0.532
x1 = 0.8478 | 0.487
x1 = 0.9335 | 0.252
x1 = 0.9785 | 0.089

Cl/C=C\Cl + CCCCCCCCCC
293.15 K
Conditions | excess molar enthalpy [kJ/mol]
x1 = 0.2397 | 0.715
x1 = 0.4025 | 1.06
x1 = 0.6996 | 0.999
x1 = 0.7635 | 0.883
x1 = 0.9492 | 0.277

Cl/C=C/Cl + CCCCCCCCCCCC
293.15 K
Conditions | excess molar enthalpy [kJ/mol]
x1 = 0.086 | 0.169
x1 = 0.1183 | 0.209
x1 = 0.1952 | 0.382
x1 = 0.2658 | 0.48
x1 = 0.354 | 0.63
x1 = 0.4354 | 0.733
x1 = 0.5034 | 0.797
x1 = 0.5297 | 0.793
x1 = 0.5654 | 0.809
x1 = 0.5792 | 0.797
x1 = 0.637 | 0.797
x1 = 0.6708 | 0.782
x1 = 0.6712 | 0.796
x1 = 0.6857 | 0.776
x1 = 0.7145 | 0.761
x1 = 0.7213 | 0.747
x1 = 0.7547 | 0.724
x1 = 0.7676 | 0.693
x1 = 0.8276 | 0.586
x1 = 0.8799 | 0.448
x1 = 0.9289 | 0.296
x1 = 0.9652 | 0.159

Cl/C=C\Cl + CCCCCCCCCCCC
293.15 K
Conditions | excess molar enthalpy [kJ/mol]
x1 = 0.2693 | 0.804
x1 = 0.4431 | 1.19
x1 = 0.6609 | 1.18
x1 = 0.7922 | 0.969
x1 = 0.851 | 0.799
x1 = 0.9026 | 0.582
x1 = 0.9588 | 0.284

Cl/C=C/Cl + CCCCCCCCCCCCCC
293.15 K
Conditions | excess molar enthalpy [kJ/mol]
x1 = 0.1129 | 0.209
x1 = 0.1792 | 0.367
x1 = 0.3112 | 0.586
x1 = 0.3404 | 0.642
x1 = 0.3809 | 0.692
x1 = 0.4345 | 0.756
x1 = 0.4786 | 0.809
x1 = 0.5019 | 0.835
x1 = 0.535 | 0.839
x1 = 0.5634 | 0.859
x1 = 0.5851 | 0.855
x1 = 0.6008 | 0.868
x1 = 0.6211 | 0.876
x1 = 0.6352 | 0.87
x1 = 0.6675 | 0.854
x1 = 0.6789 | 0.846
x1 = 0.7008 | 0.832
x1 = 0.7106 | 0.827
x1 = 0.7314 | 0.8
x1 = 0.747 | 0.786
x1 = 0.757 | 0.776
x1 = 0.7762 | 0.744
x1 = 0.8541 | 0.588
x1 = 0.8757 | 0.532
x1 = 0.9005 | 0.45
x1 = 0.9374 | 0.312

Cl/C=C\Cl + CCCCCCCCCCCCCC
293.15 K
Conditions | excess molar enthalpy [kJ/mol]
x1 = 0.3157 | 0.958
x1 = 0.5126 | 1.37
x1 = 0.638 | 1.4
x1 = 0.7787 | 1.21
x1 = 0.8831 | 0.811
x1 = 0.923 | 0.583
x1 = 0.969 | 0.275

Cl/C=C/Cl + CCCCCCCCCCCCCCCC
293.15 K
Conditions | excess molar enthalpy [kJ/mol]
x1 = 0.0735 | 0.147
x1 = 0.1873 | 0.395
x1 = 0.3532 | 0.699
x1 = 0.4326 | 0.804
x1 = 0.5287 | 0.887
x1 = 0.5819 | 0.932
x1 = 0.6155 | 0.933
x1 = 0.6514 | 0.921
x1 = 0.7106 | 0.897
x1 = 0.7294 | 0.872
x1 = 0.7428 | 0.857
x1 = 0.7698 | 0.825
x1 = 0.7846 | 0.81
x1 = 0.8008 | 0.77
x1 = 0.8578 | 0.636
x1 = 0.8776 | 0.575
x1 = 0.8951 | 0.523
x1 = 0.9485 | 0.297
x1 = 0.9795 | 0.128

Cl/C=C\Cl + CCCCCCCCCCCCCCCC
293.15 K
Conditions | excess molar enthalpy [kJ/mol]
x1 = 0.5093 | 1.39
x1 = 0.6348 | 1.5
x1 = 0.714 | 1.48
x1 = 0.7791 | 1.36
x1 = 0.8308 | 1.18
x1 = 0.8823 | 0.953
x1 = 0.9221 | 0.703
x1 = 0.9676 | 0.334
